Results: patent US20260091011A1, “HYDROALCOHOLIC SINGLE PHASE GEL COMPOSITIONS FOR TOPICAL DELIVERY OF DICLOFENAC” (HALEON CH SARL, priority 2022, published 2026)

Assay: Cumulative skin permeation study in a 3 ml permeation cell (Example 2)
Assay type: in vitro ADME, human
Settings: 2% w/w diclofenac sodium hydroalcoholic gels
Method: In a cumulative skin permeation study in a 3 ml permeation cell, cumulative permeation through a skin sample from a human donor was studied. Five different compositions were tested in six replicates. Cumulative permeation was measured at 4 hours (hrs) and at 24 hrs after application of a dose. However, cumulative permeation at 4 hrs was below the measurement threshold in this experiment and thus is not reported for Example 2. All formulations were applied in a dose of 6 microlitres onto skin sample of a defined surface area. The following formulations were studied: […]

In the case of Polysorbate 20 [Kolliphor PS 20], the “effect of non-ionic emulsifier on cumulative permeation of diclofenac at 24 hrs” value is reported as “permeation retarding effect”.

For “macrogol cetostearyl ether 20 [Kolliphor CS 20]”, the “effect of non-ionic emulsifier on cumulative permeation of diclofenac at 24 hrs” value was “more pronounced”.
